Activity calls are given as the source filed them. The calls are words filed in the database; no cut-off is given here. Where a SMILES comes first, the peptide text is derived from it. The star is where a group is joined. 6FAM = O=C1OC2(c3ccc(O)cc3Oc3cc(O)ccc32)c2cc(C(=O)*)ccc21; Stearoyl = CCCCCCCCCCCCCCCCCC(=O)*
Legend:
BT-474 = assay: Antiproliferative activity against human BT474 cells after 72 hrs by CellTiter-Glo assay; format: functional, cell-based; details: BT-474, 72 h
[1] = biological target: Receptor tyrosine-protein kinase erbB-2 (Homo sapiens) (UniProt P04626); assay: Binding affinity to HER2 extracellular domain (unknown origin) at 25 to 100 uM by SPR analysis
Receptor tyrosine-protein kinase erbB-2 (Homo sapiens), sequence (P04626 whole entry, the tested form may be a part): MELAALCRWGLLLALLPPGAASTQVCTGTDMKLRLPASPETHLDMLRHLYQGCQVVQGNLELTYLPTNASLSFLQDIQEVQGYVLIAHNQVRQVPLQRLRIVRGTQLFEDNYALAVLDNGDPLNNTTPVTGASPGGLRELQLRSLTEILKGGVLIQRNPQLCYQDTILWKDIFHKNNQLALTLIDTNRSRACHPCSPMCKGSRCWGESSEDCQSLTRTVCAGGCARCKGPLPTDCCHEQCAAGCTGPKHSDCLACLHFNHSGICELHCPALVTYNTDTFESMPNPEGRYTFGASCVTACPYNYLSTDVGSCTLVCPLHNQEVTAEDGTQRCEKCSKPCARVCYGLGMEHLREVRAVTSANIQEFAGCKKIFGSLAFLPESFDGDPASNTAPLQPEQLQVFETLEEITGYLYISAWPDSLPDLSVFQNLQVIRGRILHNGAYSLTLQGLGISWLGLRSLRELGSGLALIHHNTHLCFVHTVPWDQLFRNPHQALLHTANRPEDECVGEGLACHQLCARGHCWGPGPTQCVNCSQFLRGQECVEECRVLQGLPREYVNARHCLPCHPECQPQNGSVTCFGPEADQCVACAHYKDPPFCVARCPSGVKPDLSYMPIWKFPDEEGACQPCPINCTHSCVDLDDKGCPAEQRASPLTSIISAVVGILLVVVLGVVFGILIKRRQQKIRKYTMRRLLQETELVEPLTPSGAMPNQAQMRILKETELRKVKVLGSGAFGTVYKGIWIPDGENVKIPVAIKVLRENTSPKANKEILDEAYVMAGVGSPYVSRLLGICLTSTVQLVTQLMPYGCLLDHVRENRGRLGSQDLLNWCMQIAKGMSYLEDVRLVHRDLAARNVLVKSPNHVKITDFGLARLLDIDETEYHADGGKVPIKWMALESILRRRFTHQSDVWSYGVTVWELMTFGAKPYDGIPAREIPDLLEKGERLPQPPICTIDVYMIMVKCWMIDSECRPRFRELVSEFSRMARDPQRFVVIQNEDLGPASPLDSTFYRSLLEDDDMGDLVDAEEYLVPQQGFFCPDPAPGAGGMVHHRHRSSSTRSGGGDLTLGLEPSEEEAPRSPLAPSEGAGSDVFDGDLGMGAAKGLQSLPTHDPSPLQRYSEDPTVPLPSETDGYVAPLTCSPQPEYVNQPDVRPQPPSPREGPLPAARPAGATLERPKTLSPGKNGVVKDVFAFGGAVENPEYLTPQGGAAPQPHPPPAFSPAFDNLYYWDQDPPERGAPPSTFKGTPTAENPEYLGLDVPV

[2] = biological target: Receptor tyrosine-protein kinase erbB-2 (Homo sapiens) (UniProt P04626); assay: Inhibition of FITC-aminocaproic acid-Arg-(S)Anapa-Phe-OH binding to HER2 domain-4 in human BT474 cells at 0.5 to 200 uM after 45 mins by fluorescence assay; format: cell-based
A549 = assay: Antiproliferative activity against human A549 cells after 72 hrs by CellTiter-Glo assay; format: functional, cell-based; details: A549, 72 h
Calu-3 = assay: Antiproliferative activity against human Calu3 cells after 72 hrs by CellTiter-Glo assay; format: functional, cell-based; details: Calu-3, 72 h
MCF7 = assay: Antiproliferative activity against human MCF7 cells after 72 hrs by CellTiter-Glo assay; format: functional, cell-based; details: MCF7, 72 h
[3] = biological target: Receptor tyrosine-protein kinase erbB-2 (Homo sapiens) (UniProt P04626); assay: Binding affinity to HER2 extracellular domain (unknown origin) by SPR analysis
[4] = biological target: Receptor tyrosine-protein kinase erbB-2 (Homo sapiens) (UniProt P04626); assay: Inhibition of Stearic acid-Gly-Arg-(S)Anapa-Phe-Asp-Gly-Gly-Gly-Lys-OH (FAM Lys side chain) binding to HER2 domain-4 in human BT474 cells after 45 mins by fluorescence assay; format: cell-based
[5] = Stability in human serum after 24 hrs by HPLC analysis; format: ADME, cell-free
[6] = Half life in human serum by HPLC analysis; format: ADME, cell-free
[7] = Stability in human serum after 24 hrs by MALDI-TOF-MS analysis; format: ADME, cell-free
[8] = biological target: Receptor tyrosine-protein kinase erbB-2 (Homo sapiens) (UniProt P04626); assay: Inhibition of Stearic acid-Gly-Arg-(S)Anapa-Phe-Asp-Gly-Gly-Gly-Lys-OH (FAM Lys side chain) binding to HER2 domain-4 in human BT474 cells at 0.5 to 100 uM after 1 hr by DAPI staining based microscopic method; format: cell-based
MCF-10A = assay: Antiproliferative activity against human MCF10A cells after 72 hrs by CellTiter-Glo assay; format: cell-based
[9] = biological target: Receptor tyrosine-protein kinase erbB-2 (Homo sapiens) (UniProt P04626); assay: Binding affinity to HER2 in human BT474 cells assessed as inhibition of HER2:HER3 heterodimerization at 1 to 5 uM after 48 hrs by DAPI staining based proximity ligation assay; format: cell-based
[10] = biological target: Receptor tyrosine-protein kinase erbB-2 (Homo sapiens) (UniProt P04626); assay: Inhibition of FITC-aminocaproic acid-Arg-(S)Anapa-Phe-OH binding to HER2 domain-4 in human BT474 cells after 45 mins by fluorescence assay; format: cell-based
[11] = biological target: Receptor tyrosine-protein kinase erbB-2 (Homo sapiens) (UniProt P04626); assay: Binding affinity to HER2 in human BT474 cells assessed as receptor internalization at 0.5 uM after 2 hrs by DAPI/Lysotracker staining based microscopic method; format: cell-based
[12] = biological target: Receptor tyrosine-protein kinase erbB-2 (Homo sapiens) (UniProt P04626); assay: Binding affinity to HER2 in human BT474 cells at 0.5 uM after 30 mins by DAPI staining based microscopic method; format: cell-based

Row | Compound | IC50 (BT-474) [nM] | IC50 (A549) [nM] | IC50 (Calu-3) [nM] | IC50 (MCF7) [nM] | IC50 (MCF-10A) [nM] | also measured
1 | CCCCCCCCCCCCCCCC(=O)N[C@@H](CCCNC(=N)N)C(=O)N[C@@H](CC(=O)N[C@@H](CCCCN)C(=O)O)c1cccc2ccccc12 | 1400 | – | – | – | – | –
2 | NCCCC[C@H](N)C(=O)Nc1cccc(-c2ccccc2)c1CCC(=O)N[C@@H](Cc1ccccc1)C(=O)O | > 35000 | > 35000 | > 35000 | > 35000 | – | Activity [1]: inactive; inhibition [2]: inactive
3 | CCCCCCCCCCCCCCCCCC(=O)N[C@@H](CCCNC(=N)N)C(=O)N[C@@H](CC(=O)N[C@@H](CCCCN)C(=O)O)c1cccc2ccccc12 | 1200 | – | – | – | – | –
4 | CCCCCCCCCCCCCCCCCC(=O)N[C@@H](CCCNC(=N)N)C(=O)N[C@@H](CC(=O)N[C@@H](Cc1ccccc1)C(=O)O)c1cccc2ccccc12 | 1000 | 1170 | 1460 | > 35000 | > 35000 | Activity [3]: Dose-dependent effect; inhibition [4]: Dose-dependent effect; Stability [5]: Stable; half-life [6]: 5 h; Stability [7]: Stable; inhibition [8]: Active; inhibition [9]: Active; inhibition [10]: Dose-dependent effect
5 | CCCCCCCCCCCCCCCC(=O)N[C@@H](CCCNC(=N)N)C(=O)N[C@@H](CC(=O)N[C@@H](Cc1ccccc1)C(=O)O)c1cccc2ccccc12 | 1400 | 1010 | 1560 | > 35000 | > 35000 | –
6 | CCCCCCCCCCCCCCCCCC(=O)NCC(=O)N[C@@H](CCCNC(=N)N)C(=O)N[C@@H](C)C(=O)N[C@@H](C)C(=O)N[C@@H](CC(C)C)C(=O)NCC(=O)NCC(=O)NCC(=O)N[C@@H](CCCCNC(=O)c1ccc2c(c1)C1(OC2=O)c2ccc(O)cc2Oc2cc(O)ccc21)C(=O)O (Stearoyl-GRAALGGGK(6FAM)-OH) | – | – | – | – | – | Activity [11]: inactive; Activity [12]: inactive

Reference: ChEMBL document CHEMBL4257567, “Design of novel lipidated peptidomimetic conjugates for targeting EGFR heterodimerization in HER2 + cancer” (Bioorg Med Chem Lett, 2018)
